In brackets after ≈: the same amount, converted by molar mass.
How the values were obtained:
[1] = Antiproliferative activity against human GBM-0627-GFD cells assessed as reduction in cell viability by MTT assay; format: functional, cell-based
[2] = tested on: Pseudomonas aeruginosa; assay: microbe, parasite or virus in culture; settings: Pseudomonas aeruginosa, 126, 24 h
Description: Antibacterial activity against multidrug-resistant Pseudomonas aeruginosa 126 clinical isolate assessed as reduction in bacterial growth incubated for 24 hrs by CLSI based broth microdilution method

[3] = tested on: Escherichia coli; assay: microbe, parasite or virus in culture
Description: Antibacterial activity against Escherichia coli assessed as inhibition of bacterial growth by broth microdilution method

[4] = tested on: Staphylococcus aureus; assay: microbe, parasite or virus in culture; settings: Staphylococcus aureus, 171, 24 h
Description: Antimicrobial activity against methicillin-resistant Staphylococcus aureus 171 clinical isolate assessed as bacterial growth inhibition incubated for 24 hrs by CLSI based broth microdilution method

[5] = tested on: Acinetobacter baumannii; assay: microbe, parasite or virus in culture; settings: ATCC 19606
Description: Antibacterial activity against Acinetobacter baumannii ATCC 19606 assessed as inhibition of bacterial growth by broth microdilution method

[6] = target: Cholinesterase (Equus caballus, UniProt P81908); assay: Inhibition of equine serum BuChE using butyrylthiocholine iodide as substrate measured for 30 mins by ELLman's method
[7] = target: Acetylcholinesterase (Electrophorus electricus, UniProt O42275); assay: Inhibition of electric eel AchE using acetylthiocholine as substrate incubated for 30 mins by Ellman's method
[8] = tested on: HeLa; assay: Antiproliferative activity against human HeLa cells assessed as reduction in cell viability incubated for 48 hrs by CCK-8 assay; format: functional, cell-based
[9] = tested on: HepG2; assay: cells; settings: Homo sapiens, HepG2, 48 h
[10] = tested on: KB; assay: Antiproliferative activity against human KB cells assessed as reduction in cell viability incubated for 48 hrs by CCK-8 assay; format: functional, cell-based
[11] = tested on: MCF7; assay: Antiproliferative activity against human MCF7 cells assessed as reduction in cell viability incubated for 48 hrs by CCK-8 assay; format: functional, cell-based; settings: MCF7, 48 h
[12] = tested on: HEK-293T; assay: Antiproliferative activity against HEK293T cells assessed as reduction in cell viability incubated for 48 hrs by CCK-8 assay; format: functional, cell-based; settings: Homo sapiens
[13] = tested on: CNE-2; assay: Anticancer activity against human CNE-2 cells assessed as reduction in cell viability incubated for 72 hrs by MTT assay; format: functional, cell-based; settings: CNE-2, 72 h
[14] = cells; settings: Homo sapiens, SPCA1, 72 h
Description: Anticancer activity against human SPCA1 cells assessed as reduction in cell viability incubated for 72 hrs by MTT assay

[15] = tested on: HCT-116; assay: cells; settings: Homo sapiens, HCT-116, 72 h
Description: Anticancer activity against human HCT-116 cells assessed as reduction in cell viability incubated for 72 hrs by MTT assay

[16] = tested on: HeLa; assay: cells; settings: Homo sapiens, 72 h
Description: Anticancer activity against human HeLa cells assessed as reduction in cell viability incubated for 72 hrs by MTT assay

[17] = tested on: CNE; assay: cells; format: functional, cell-based; settings: Homo sapiens, 48 h
Description: Anticancer activity against human CNE cells assessed as reduction in cell growth incubated for 48 hrs by MTT assay

[18] = tested on: SK-OV-3; assay: cells; format: functional, cell-based; settings: Homo sapiens, SK-OV-3, 48 h
Description: Anticancer activity against human SK-OV-3 cells assessed as reduction in cell growth incubated for 48 hrs by MTT assay

[19] = tested on: MDA-MB-231; assay: cells; format: functional, cell-based; settings: Homo sapiens, MDA-MB-231, 48 h
Description: Anticancer activity against human MDA-MB-231 cells assessed as reduction in cell growth incubated for 48 hrs by MTT assay

[20] = tested on: HepG2; assay: cells; settings: Homo sapiens, HepG2, 72 h
Description: Anticancer activity against human HepG2 cells assessed as reduction in cell viability incubated for 72 hrs by MTT assay

Acetylcholinesterase, sequence (O42275 whole entry): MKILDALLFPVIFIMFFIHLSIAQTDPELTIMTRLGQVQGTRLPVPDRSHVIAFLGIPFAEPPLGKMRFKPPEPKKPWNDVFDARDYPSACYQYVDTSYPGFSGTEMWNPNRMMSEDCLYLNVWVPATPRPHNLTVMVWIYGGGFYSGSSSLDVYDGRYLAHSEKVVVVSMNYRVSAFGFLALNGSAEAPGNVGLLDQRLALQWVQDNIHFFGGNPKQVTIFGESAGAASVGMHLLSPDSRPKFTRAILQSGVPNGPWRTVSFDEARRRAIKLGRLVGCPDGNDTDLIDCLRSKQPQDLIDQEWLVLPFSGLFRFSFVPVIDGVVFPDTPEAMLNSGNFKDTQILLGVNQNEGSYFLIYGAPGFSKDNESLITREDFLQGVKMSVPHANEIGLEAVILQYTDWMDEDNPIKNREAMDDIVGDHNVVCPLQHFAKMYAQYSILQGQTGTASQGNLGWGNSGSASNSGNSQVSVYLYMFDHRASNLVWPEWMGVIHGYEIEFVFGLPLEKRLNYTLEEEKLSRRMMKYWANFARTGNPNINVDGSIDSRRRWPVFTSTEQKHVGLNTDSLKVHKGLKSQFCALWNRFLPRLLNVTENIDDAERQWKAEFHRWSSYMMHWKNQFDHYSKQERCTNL
Cholinesterase, sequence (P81908 whole entry): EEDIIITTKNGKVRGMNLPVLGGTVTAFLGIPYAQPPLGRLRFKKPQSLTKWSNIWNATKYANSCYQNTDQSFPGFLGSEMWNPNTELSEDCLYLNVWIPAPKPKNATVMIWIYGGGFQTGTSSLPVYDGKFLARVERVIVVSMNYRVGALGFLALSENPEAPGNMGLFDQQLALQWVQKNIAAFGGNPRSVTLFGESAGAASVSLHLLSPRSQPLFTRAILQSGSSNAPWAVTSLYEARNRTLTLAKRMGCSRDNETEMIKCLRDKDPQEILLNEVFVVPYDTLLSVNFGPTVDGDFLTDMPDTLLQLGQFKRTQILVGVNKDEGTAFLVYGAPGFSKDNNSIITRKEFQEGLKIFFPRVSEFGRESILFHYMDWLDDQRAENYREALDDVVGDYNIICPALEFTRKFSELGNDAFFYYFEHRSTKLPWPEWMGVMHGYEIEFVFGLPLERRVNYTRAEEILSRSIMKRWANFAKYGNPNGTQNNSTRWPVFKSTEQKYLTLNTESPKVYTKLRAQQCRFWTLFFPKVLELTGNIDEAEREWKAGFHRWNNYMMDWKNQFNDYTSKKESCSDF

In the case of `N[C@@H](CCCCNC(=O)c1cc(O)c2c(c1)C(=O)c1cccc(O)c1C2=O)C(=O)O`, the IC50 [1] is reported as > 80 µM.
Molecule `Cc1ccc(C[n+]2ccc(CCCOC(=O)c3cc(O)c4c(c3)C(=O)c3cccc(O)c3C4=O)cc2)cc1.[Br-]` has an MIC [2] of 16 µg/mL, an MIC [3] of 64 µg/mL and an MIC [4] of 8 µg/mL. The MIC [5] was > 128 µg/mL.
In the case of `O=C(CCCCCNC(=O)c1cc(O)c2c(c1)C(=O)c1cccc(O)c1C2=O)NO`, the IC50 [1] is reported as 5.5 µM.
`O=C(NCCCCCCNc1c2c(nc3ccccc13)CCC2)c1cc(O)c2c(c1)C(=O)c1cccc(O)c1C2=O` gave an IC50 [6] of 0.219 µM and an IC50 [7] of 0.543 µM.
Work on `CCCCOc1cccc2c1C(=O)c1c(OCCCC)cc(C(=O)N[C@H](C(=O)O)C(C)C)cc1C2=O` yielded an IC50 [8] of 67.8 µM, an IC50 [9] of 54.4 µM and an IC50 [10] of 28.6 µM. For the same molecule, the IC50 [11] was > 100 µM and the IC50 [12] was 43.1 µM.
`CCOP(=O)(OCC)C(NC(=O)c1cc(O)c2c(c1)C(=O)c1cccc(O)c1C2=O)c1ccccc1OC` (configuration not stated) showed an IC50 [13] of 28.6 µM and an IC50 [14] of 15 µM.
Work on `CCOP(=O)(OCC)C(C)(NC(=O)c1cc(O)c2c(c1)C(=O)c1cccc(O)c1C2=O)c1ccc(C)cc1` (configuration not stated) yielded an IC50 [15] of 30.6 µM, an IC50 [13] of 33.8 µM and an IC50 [14] of 16.9 µM. The IC50 [16] was > 50 µM.
In the case of `COc1ccc(C[n+]2ccc(CCCOC(=O)c3cc(O)c4c(c3)C(=O)c3cccc(O)c3C4=O)cc2)cc1.[Br-]`, the MIC [2] is reported as 32 µg/mL, the MIC [3] is reported as > 128 µg/mL and the MIC [4] is reported as 16 µg/mL. It also gave an MIC [5] of 128 µg/mL.
Molecule `CCOP(=O)(OCC)C(C)(CCc1ccccc1)NC(=O)c1cc(O)c2c(c1)C(=O)c1cccc(O)c1C2=O` (configuration not stated) has an IC50 [15] of 12.7 µM, an IC50 [13] of 27.3 µM and an IC50 [14] of 9.01 µM. The IC50 [16] was 45.4 µM.
In the case of `O=C(Nc1ccc2ncnc(Nc3ccc(F)cc3)c2c1)c1cc(OCc2ccccc2)c2c(c1)C(=O)c1cccc(OCc3ccccc3)c1C2=O`, the IC50 [17] is reported as 12.4 µM, the IC50 [18] is reported as 20.5 µM and the IC50 [19] is reported as 3 µM.
`CCOP(=O)(OCC)C(NC(=O)c1cc(O)c2c(c1)C(=O)c1cccc(O)c1C2=O)c1cccc(OC)c1` (configuration not stated) gave an IC50 [13] of 24.1 µM and an IC50 [14] of 28.3 µM.
`O=C(NCCCCCCNc1c2c(nc3cc(Cl)ccc13)CCCC2)c1cc(O)c2c(c1)C(=O)c1cccc(O)c1C2=O` gave an IC50 [6] of 0.773 µM and an IC50 [7] of 0.022 µM.
For `CC(C)[C@H](NC(=O)c1cc(OCc2cccc(F)c2)c2c(c1)C(=O)c1cccc(OCc3cccc(F)c3)c1C2=O)C(=O)O`, the IC50 [8] was 35.4 µM, the IC50 [9] was 29.6 µM and the IC50 [10] was 17.8 µM. For the same molecule, the IC50 [11] was 38.6 µM and the IC50 [12] was 12.9 µM.
Work on `CCOP(=O)(OCC)C(NC(=O)c1cc(O)c2c(c1)C(=O)c1cccc(O)c1C2=O)c1cccc(Cl)c1` (configuration not stated) yielded an IC50 [15] of 48.2 µM, an IC50 [20] of 39.2 µM and an IC50 [13] of 68 µM. The IC50 [14] was 28.3 µM and the IC50 [16] was 35.2 µM.
In the case of `O=C(NCCCCCCCCNc1c2c(nc3ccccc13)CCCC2)c1cc(O)c2c(c1)C(=O)c1cccc(O)c1C2=O`, the IC50 [6] is reported as 0.36 µM and the IC50 [7] is reported as 0.148 µM.
`Cc1ccc(Nc2ncnc3ccc(NC(=O)c4cc(OCc5ccccc5)c5c(c4)C(=O)c4cccc(OCc6ccccc6)c4C5=O)cc23)cc1` showed an IC50 [19] of 3.1 µM.
In the case of `O=C(NCCCCNc1c2c(nc3ccccc13)CCCC2)c1cc(O)c2c(c1)C(=O)c1cccc(O)c1C2=O`, the IC50 [6] is reported as 0.286 µM and the IC50 [7] is reported as 0.0587 µM.
Molecule `COc1cccc(Nc2ncnc3ccc(NC(=O)c4cc(OCc5ccccc5)c5c(c4)C(=O)c4cccc(OCc6ccccc6)c4C5=O)cc23)c1` has an IC50 [17] of 56.4 µM, an IC50 [18] of 68.6 µM and an IC50 [19] of 74.1 µM.
With `COc1ccc(Nc2ncnc3ccc(NC(=O)c4cc(OCc5ccccc5)c5c(c4)C(=O)c4cccc(OCc6ccccc6)c4C5=O)cc23)cc1` the IC50 [17] was 24.8 µM, the IC50 [18] was > 100 µM and the IC50 [19] was 42.4 µM.
In the case of `O=c1[nH]cc(F)c(=O)[nH]1` [FLUOROURACIL], the IC50 [20] is reported as 30 µM, the IC50 [13] is reported as 40.2 µM and the IC50 [14] is reported as 42.2 µM.
In the case of `Cc1cccc(Nc2ncnc3ccc(NC(=O)c4cc(OCc5ccccc5)c5c(c4)C(=O)c4cccc(OCc6ccccc6)c4C5=O)cc23)c1`, the IC50 [17] is reported as 5.9 µM, the IC50 [18] is reported as > 100 µM and the IC50 [19] is reported as 49.9 µM.
For `CC(C)c1ccc(COc2cccc3c2C(=O)c2c(OCc4ccc(C(C)C)cc4)cc(C(=O)N[C@H](C(=O)O)C(C)C)cc2C3=O)cc1`, the IC50 [8] was 37.5 µM, the IC50 [9] was 5.8 µM and the IC50 [10] was 9.4 µM. For the same molecule, the IC50 [11] was 13.9 µM and the IC50 [12] was 1.9 µM.
`CCOP(=O)(OCC)C(NC(=O)c1cc(O)c2c(c1)C(=O)c1cccc(O)c1C2=O)c1ccccc1` (configuration not stated) showed an IC50 [13] of 34.3 µM and an IC50 [14] of 27.4 µM.
`N#Cc1ccc(C[n+]2ccc(CCCNC(=O)c3cc(O)c4c(c3)C(=O)c3cccc(O)c3C4=O)cc2)cc1.[Br-]` gave an MIC [2] of 32 µg/mL, an MIC [3] of 64 µg/mL and an MIC [4] of 16 µg/mL. For the same molecule, the MIC [5] was > 128 µg/mL.
Work on `CCOP(=O)(OCC)C(NC(=O)c1cc(O)c2c(c1)C(=O)c1cccc(O)c1C2=O)c1ccc(OC)cc1` (configuration not stated) yielded an IC50 [13] of 42.9 µM and an IC50 [14] of 38.9 µM.
`CCOP(=O)(OCC)C(C)(NC(=O)c1cc(O)c2c(c1)C(=O)c1cccc(O)c1C2=O)c1ccccc1` (configuration not stated) showed an IC50 [15] of 23.4 µM, an IC50 [13] of 38.3 µM and an IC50 [14] of 25.1 µM. The IC50 [16] was > 50 µM.
Molecule `CC(C)[C@H](NC(=O)c1cc(OCc2ccccc2)c2c(c1)C(=O)c1cccc(OCc3ccccc3)c1C2=O)C(=O)O` has an IC50 [8] of 44.9 µM, an IC50 [9] of 36.1 µM and an IC50 [10] of 15.6 µM. The IC50 [11] was 36.5 µM and the IC50 [12] was 21.5 µM.
`CO/N=C(\C(=O)N[C@@H]1C(=O)N2C(C(=O)O)=C(COC(N)=O)CS[C@H]12)c1ccco1` [CEFUROXIME] gave an MIC [2] of 1020 µg/mL (≈ 2410 µM), an MIC [3] of 64 µg/mL (≈ 151 µM) and an MIC [4] of 1020 µg/mL (≈ 2410 µM). For the same molecule, the MIC [5] was 1020 µg/mL (≈ 2410 µM).
`CC(C)[C@H](NC(=O)c1cc(OCCCc2ccccc2)c2c(c1)C(=O)c1cccc(OCCCc3ccccc3)c1C2=O)C(=O)O` gave an IC50 [8] of 9.4 µM, an IC50 [9] of 3.6 µM and an IC50 [10] of 4.9 µM. It also gave an IC50 [11] of 4.5 µM and an IC50 [12] of 1.6 µM.

Reference: ChEMBL document CHEMBL6092146 (Bioorg Med Chem, 2024)
